Laboratory results: PMC12564265, “Navigating the Deep Eutectic Solvent Landscape: Experimental and Machine Learning Solubility Explorations of Syringic, p-Coumaric, and Caffeic Acids” (International Journal of Molecular Sciences, 2025)
Several values for one entry are separate records, joined by “and”; a condition that tells them apart may be missing. Identical values can stand only once.

Experiment: Shake-flask solubility with spectrophotometric measurement in aqueous DES mixtures
Type: physicochemical
Conditions: for Increase in the solubility compared to the neat DES: 25 °C
Description: In order to determine the solubility of the three studied phenolic acids in deep eutectic solvents, a very well-established shake-flask method coupled with spectrophotometric measurements was utilized. The initial procedure involved the preparation of various DESs, which was conducted by mixing their HBA and HBD counterparts in a glass vessel and heating the composition until the formation of a transparent, uniform liquid. […] For additional measurements, the DESs were mixed with water in varying proportions, creating aqueous DES systems. Saturated solutions of CAF, SYR, and COU were obtained by adding excess amounts of these compounds to test tubes containing either a neat deep eutectic solvent or its aqueous solution. Such samples were placed in the Orbital Shaker Incubator ES-20/60 from Biosan (Riga, Latvia) and heated for 24 h at 25 °C, 30 °C, 35 °C, and 40 °C (±0.1 °C) with simultaneous mixing at 60 rpm. Before measurements, the samples were filtered using a PTFE syringe filter from Qpore (Dallas, TX, USA) with a 0.22 μm pore size. In order to avoid possible precipitation of the saturated solutions at decreased temperatures, the test tubes, syringes, pipette tips, and filters were kept at a temperature identical to that of the samples. The spectrophotometric measurements required the preparation of calibration curves for the three APIs. This involved the preparation of a stock solution of each compound in methanol, which was later successfully diluted, and the obtained solutions of varying concentrations were measured using an A360 spectrophotometer from AOE Instruments (Shanghai, China). The wavelength range was set to 200-500 nm, and the resolution was 1 nm. The analytical wavelengths were determined to be 324 nm for caffeic acid, 273 nm for syringic acid, and 308 nm for p-coumaric acid. The final regression equations, obtained after averaging three distinct sets of measurements, are collected in Table 2 together with determination coefficients and limits of detection (LOD) and quantification (LOQ) for the calibration curves. The measurements of the samples were conducted with the same spectrophotometer and identical settings. Methanol was used for the dilution of the samples so that they could remain within the linearity range of the method. Complete spectra of the samples were recorded, but for the solubility determination, the absorbance values at a specific analytical wavelength were considered. These values were combined with the corresponding regression equations of the calibration curves and served for the calculation of the concentration of the three phenolic acids in the studied samples. The densities of such samples were also measured, and for this task 1 mL of each sample was weighed to a precision of 0.1 mg using an AS 110 R2.PLUS analytical balance from […] (Radom, Poland). The obtained densities enabled the calculation of mole fractions of CAF, SYR, and COU dissolved in the studied DESs. For each considered system, three distinct measurements were conducted, and the results were averaged.

In the case of `O=C(O)C=Cc1ccc(O)c(O)c1` [caffeic acid, 3,4-dihydroxycinnamic acid], the Mole fraction solubility (Bet – TEG 1:2 + water, x*DES 0.9, 30°C) is reported as 0.0941±0.0005 mole fraction, the Mole fraction solubility (Bet – TEG 1:2 + water, x*DES 0.9, 35°C) is reported as 0.1123±0.0012 mole fraction and the Mole fraction solubility (Bet – TEG 1:2 + water, x*DES 0.9, 40°C) is reported as 0.1364±0.0011 mole fraction. The Mole fraction solubility (Bet – TEG 1:2, x*DES 1.0 (neat DES), 25°C) was 0.0755±0.0010 mole fraction, the Mole fraction solubility (Bet – TEG 1:2, x*DES 1.0 (neat DES), 30°C) was 0.0844±0.0011 mole fraction and the Mole fraction solubility (Bet – TEG 1:2, x*DES 1.0 (neat DES), 35°C) was 0.0989±0.0012 mole fraction. For the same compound, the Mole fraction solubility (Bet – TEG 1:2, x*DES 1.0 (neat DES), 40°C) was 0.1215±0.0012 mole fraction, the “Increase in the solubility compared to the neat DES” value (Bet-TEG 1:2, x*DES = 0.9 (xwater = 0.1)) was 9% and the Mole fraction solubility (ChCl – TEG 1:2 + water, x*DES 0.1, 25°C) was 0.0098±0.0001 mole fraction. For the same compound, the Mole fraction solubility (ChCl – TEG 1:2 + water, x*DES 0.1, 30°C) was 0.0125±0.0001 mole fraction, the Mole fraction solubility (ChCl – TEG 1:2 + water, x*DES 0.1, 35°C) was 0.0162±0.0001 mole fraction and the Mole fraction solubility (ChCl – TEG 1:2 + water, x*DES 0.1, 40°C) was 0.0211±0.0001 mole fraction. For the same compound, the Mole fraction solubility (ChCl – TEG 1:2 + water, x*DES 0.2, 25°C) was 0.0184±0.0002 mole fraction, the Mole fraction solubility (ChCl – TEG 1:2 + water, x*DES 0.2, 30°C) was 0.0233±0.0002 mole fraction and the Mole fraction solubility (ChCl – TEG 1:2 + water, x*DES 0.2, 35°C) was 0.0321±0.0001 mole fraction. The Mole fraction solubility (ChCl – TEG 1:2 + water, x*DES 0.2, 40°C) was 0.0432±0.0002 mole fraction, the Mole fraction solubility (ChCl – TEG 1:2 + water, x*DES 0.3, 25°C) was 0.0292±0.0002 mole fraction and the Mole fraction solubility (ChCl – TEG 1:2 + water, x*DES 0.3, 30°C) was 0.0366±0.0003 mole fraction. The Mole fraction solubility (ChCl – TEG 1:2 + water, x*DES 0.3, 35°C) was 0.0492±0.0002 mole fraction, the Mole fraction solubility (ChCl – TEG 1:2 + water, x*DES 0.3, 40°C) was 0.0665±0.0004 mole fraction and the Mole fraction solubility (ChCl – TEG 1:2 + water, x*DES 0.4, 25°C) was 0.0381±0.0003 mole fraction. For the same compound, the Mole fraction solubility (ChCl – TEG 1:2 + water, x*DES 0.4, 30°C) was 0.0481±0.0003 mole fraction, the Mole fraction solubility (ChCl – TEG 1:2 + water, x*DES 0.4, 35°C) was 0.0652±0.0003 mole fraction and the Mole fraction solubility (ChCl – TEG 1:2 + water, x*DES 0.4, 40°C) was 0.0893±0.0002 mole fraction. It also gave a Mole fraction solubility (ChCl – TEG 1:2 + water, x*DES 0.5, 25°C) of 0.0491±0.0004 mole fraction, a Mole fraction solubility (ChCl – TEG 1:2 + water, x*DES 0.5, 30°C) of 0.0612±0.0003 mole fraction and a Mole fraction solubility (ChCl – TEG 1:2 + water, x*DES 0.5, 35°C) of 0.0841±0.0005 mole fraction. The Mole fraction solubility (ChCl – TEG 1:2 + water, x*DES 0.5, 40°C) was 0.1208±0.0009 mole fraction, the Mole fraction solubility (ChCl – TEG 1:2 + water, x*DES 0.6, 25°C) was 0.0593±0.0005 mole fraction and the Mole fraction solubility (ChCl – TEG 1:2 + water, x*DES 0.6, 30°C) was 0.0754±0.0003 mole fraction. The Mole fraction solubility (ChCl – TEG 1:2 + water, x*DES 0.6, 35°C) was 0.1040±0.0006 mole fraction, the Mole fraction solubility (ChCl – TEG 1:2 + water, x*DES 0.6, 40°C) was 0.1464±0.0014 mole fraction and the Mole fraction solubility (ChCl – TEG 1:2 + water, x*DES 0.7, 25°C) was 0.0715±0.0007 mole fraction. The Mole fraction solubility (ChCl – TEG 1:2 + water, x*DES 0.7, 30°C) was 0.0924±0.0007 mole fraction, the Mole fraction solubility (ChCl – TEG 1:2 + water, x*DES 0.7, 35°C) was 0.1254±0.0014 mole fraction and the Mole fraction solubility (ChCl – TEG 1:2 + water, x*DES 0.7, 40°C) was 0.1718±0.0012 mole fraction. It also gave a Mole fraction solubility (ChCl – TEG 1:2 + water, x*DES 0.8, 25°C) of 0.0827±0.0009 mole fraction, a Mole fraction solubility (ChCl – TEG 1:2 + water, x*DES 0.8, 30°C) of 0.1080±0.0013 mole fraction and a Mole fraction solubility (ChCl – TEG 1:2 + water, x*DES 0.8, 35°C) of 0.1418±0.0015 mole fraction. For the same compound, the Mole fraction solubility (ChCl – TEG 1:2 + water, x*DES 0.8, 40°C) was 0.1910±0.0018 mole fraction, the Mole fraction solubility (ChCl – TEG 1:2 + water, x*DES 0.9, 25°C) was 0.0851 mole fraction and 0.0851±0.0005 mole fraction and the Mole fraction solubility (ChCl – TEG 1:2 + water, x*DES 0.9, 30°C) was 0.1116±0.0017 mole fraction. The Mole fraction solubility (ChCl – TEG 1:2 + water, x*DES 0.9, 35°C) was 0.1479±0.0013 mole fraction, the Mole fraction solubility (ChCl – TEG 1:2 + water, x*DES 0.9, 40°C) was 0.1964±0.0019 mole fraction and the Mole fraction solubility (ChCl – TEG 1:2, x*DES 1.0 (neat DES), 25°C) was 0.0835±0.0010 mole fraction. The Mole fraction solubility (ChCl – TEG 1:2, x*DES 1.0 (neat DES), 30°C) was 0.1032±0.0014 mole fraction, the Mole fraction solubility (ChCl – TEG 1:2, x*DES 1.0 (neat DES), 35°C) was 0.1364±0.0007 mole fraction and the Mole fraction solubility (ChCl – TEG 1:2, x*DES 1.0 (neat DES), 40°C) was 0.1928±0.0017 mole fraction. For the same compound, the “Increase in the solubility compared to the neat DES” value (ChCl-TEG 1:2, x*DES = 0.9 (xwater = 0.1)) was 2%, the “Solubility increase between 25 °C and 40 °C” value (neat DES (x*DES = 1.0) involving betaine (Bet-TEG 1:2)) was 161% and the “Solubility increase between 25 °C and 40 °C” value (neat DES (x*DES = 1.0) with choline chloride (ChCl-TEG 1:2)) was 231%.
